Patent publication US20130288956A1, “COMBINED PHARMACEUTICAL COMPOSITION AS ANTIFUNGAL AGENT” (priority 2010, published 2013)

What was measured:
[1] = tested on: A. fumigatus strain IFM52108; experiment: A. fumigatus respiratory tract infection model; format: in vivo, mice; settings: for Combination effects in mouse Aspergillus fumigatus infection model: combination with the test compound of the invention
Experimental: (§1) Female DBA/2N mice (age 8 weeks, Charles River Laboratories Japan, Inc.) were subcutaneously administered 200 mg/kg of 5-fluorouracil 5 or 6 days prior to infection in order to put the mice into a compromised state.
(§2) A. fumigatus strain IFM52108 and A. flavus strain IFM50915 were used.
A liquid containing spores of A. fumigatus strain IFM52108 stored at −80° C. was applied to Potato Dextrose agar medium (PDA, Eiken Chemical Co., Ltd.) followed by static culturing for 5 to 7 days at 35° C. and suspending in sterile physiological saline containing 0.05% Tween 80.
The number of spores was counted using a hemocytometer, and the liquid was diluted with sterile physiological saline containing 0.05% Tween 80 to a concentration of 1.2×10^6 cells/mL to 2.5×10^6 cells/mL to obtain an inoculation fungus liquid.
(§3) 50 μl of inoculation fungus liquid were inoculated into the nasal cavities of 9-week-old mice at 0.3×10^5 cells/mouse to 1.25×10^5 cells/mouse under Ketalar anesthesia.
(§4) 0.1 mL to 0.2 mL of each drug solution (dissolved in sterile physiological saline or 5% glucose solution, or dissolved in sterile physiological saline or 5% glucose solution containing 6.5% dimethylsulfoxide and 3.5% Tween 80) was administered to the individual and combination dose groups either into the peritoneal cavity or into the stomach using a gastric cannula corresponding to the administration route of the drug for 3 to 4 days at the rate of 1 to 2 times per day starting 0.5 hours to 1 hour after inoculation of fungus.
(§5) There were 5 to 9 animals in each group.
(§6) Infection protection results were assessed on survival rate 14 days after infection.

C. glabrata = experiment: In vitro combination effects, checkerboard method by micro dilution (FIC index); format: cell-based, Candida glabrata; settings: combination use with Test Compound 1
Experimental: (§7) A clinically isolated strain retained by the Medical Mycology Research Center of Chiba University (Code No. IFM) and a clinically isolated strain retained by the Life Science Research Center of Gifu University (Code No. E) were used as Candida and Aspergillus strains.
(§8) Fungus liquid obtained by static culturing at 35° C. for 48 hours in Sabouraud Dextrose liquid medium (SDB, Becton, Dickinson and Co.) was diluted with RPMI 1640 medium (Nissui Pharmaceutical Co., Ltd.) containing 0.165 M 3-(N-morpholino)propanesulfonic acid (MOPS) to prepare a fungus liquid having a fungus concentration of 1×10^3 cells/mL to 2×10^3 cells/mL.
(§9) Test Compound 1 (0.0005 μg/mL to 1.56 μg/mL) in the horizontal rows (12 wells) of a 96-well flat-bottom plate, and an antifungal agent in the form of ravuconazole (0.0015 μg/mL to 6.25 μg/mL), fluconazole (0.008 μg/mL to 32 μg/mL), voriconazole (0.0002 μg/mL to 8 μg/mL), micafungin (0.0005 μg/mL to 0.25 μg/mL), caspofungin (0.0005 μg/mL to 1 μg/mL) or amphotericin B (0.008 μg/mL to 8 μg/mL) in the vertical rows (8 wells) of the flat-bottom plate were prepared by diluting so as to blend together using RPMI 1640 medium containing 0.165 M MOPS to obtain a control group, a single Test Compound 1 group, each one of antifungal agents groups and combination groups of Test Compound 1+each one of antifungal agents.
(§10) The fungus liquids prepared in (1) were inoculated into the wells of 96-well flat-bottom plate containing 20 μL/well to 75 μL/well of the diluted test drug liquids prepared in (2) at 80 μL/well to 125 μL/well, followed by aerobically static culturing for 25 hours to 48 hours at 35° C.
(§11) Combination effects of Test Compound 1 and the antifungal agents were measured with the checkerboard method by micro dilution.
(§12) Interaction between both drugs was assessed by calculating the FIC index using the calculation formula indicated below.
(§13) The FIC index was calculated for each combination of antifungal agent concentrations that inhibited fungal growth, and the minimum value of the resulting FIC index was used as a combination FIC index.
(§14) A combination FIC index of 0.5 or less was evaluated as indicating synergistic action, that of 0.5 to 1 or less was evaluated as indicating additive action, and that of 1 to 4 or less was evaluated as indicating indifferent action.
(§15) FIC Index=(MIC value of drug A during combination use/MIC value of drug A when used alone)+(MIC value of drug B during combination use/MIC value of drug B when used alone) (Calculation Formula)

[2] = tested on: A. flavus strain IFM50915; experiment: A. flavus respiratory tract infection model; format: in vivo, mice
Experimental: as §1, §2
A liquid containing spores of A. flavus strain IFM50915 stored at −80° C. was thawed, and the number of spores was counted using a hemocytometer followed by diluting with sterile physiological saline containing 0.05% Tween 80 to a concentration of 0.6×10^6 cells/mL to 1.0×10^6 cells/mL to obtain an inoculation fungus liquid.
as §3, §4, §5, §6

C. tropicalis = experiment: In vitro combination effects, checkerboard method by micro dilution (FIC index); format: cell-based, Candida tropicalis
Experimental: as §7, §8, §9, §10, §11, §12, §13, §14, §15

A. fumigatus = experiment: as above; format: cell-based, Aspergillus fumigatus
Experimental: as §7
(§16) An Aspergillus strain stored frozen at −80° C., or spores obtained by static culturing at 35° C. for 1 week in Potato Dextrose agar medium (PDA, Eiken Chemical Co., Ltd.) followed by scraping from the container with a metal loop, was diluted with RPMI 1640 medium containing 0.165 M MOPS to prepare a fungus liquid having a fungus concentration of 0.75×10^4 cells/mL to 1.33×10^4 cells/mL.
as §9, §10, §11, §12, §13, §14, §15

A. flavus = experiment: as above; format: cell-based, Aspergillus flavus; settings: A. flavus (4 strains)
Experimental: as §7, §16, §9, §10, §11, §12, §13, §14, §15

C. albicans = experiment: as above; format: cell-based, Candida albicans
Experimental: as §7, §8, §9, §10, §11, §12, §13, §14, §15

`C[C@@H](c1nc(-c2ccc(C#N)cc2)cs1)[C@](O)(Cn1cncn1)c1ccc(F)cc1F` [Ravuconazole, ravuconazole] was tested, and the 14-day survival rate ([1]; RVCZ 5 mg/kg) was 0%, the 14-day survival rate ([1]; RVCZ 10 mg/kg) was 40% and the “Combination effects in mouse Aspergillus fumigatus infection model” value [1] was “synergistic combination effects”. For the same compound, the “Ratio indicating Additive effect of combination use with Test Compound 1” value (from here on “Ratio indicating Additive effect”) (C. glabrata; C. glabrata (5 strains)) was 60%, the “Ratio indicating Antagonistic effect of combination use with Test Compound 1” value (from here on “Ratio indicating Antagonistic effect”) (C. glabrata; C. glabrata (5 strains)) was 0% and the “Ratio indicating Indifferent effect of combination use with Test Compound 1” value (from here on “Ratio indicating Indifferent effect”) (C. glabrata; C. glabrata (5 strains)) was 0%. The “Ratio indicating Synergistic effect of combination use with Test Compound 1” value (“Ratio indicating Synergistic effect” for short) (C. glabrata; C. glabrata (5 strains)) was 40%, the 14-day survival rate ([2]; RVCZ 2.5 mg/kg) was 40% and the 14-day survival rate ([2]; RVCZ 5 mg/kg) was 80%. For the same compound, the “Ratio indicating Additive effect” value (C. tropicalis; C. tropicalis (5 strains)) was 0%, the “Ratio indicating Antagonistic effect” value (C. tropicalis; C. tropicalis (5 strains)) was 0% and the “Ratio indicating Indifferent effect” value (C. tropicalis; C. tropicalis (5 strains)) was 0%. The “Ratio indicating Synergistic effect” value (C. tropicalis; C. tropicalis (5 strains)) was 100%, the “Effect of combination use with Test Compound 1 (FIC index evaluation)” value (C. tropicalis; Candida tropicalis strains E83037, E83038, E83039, E83040 and E83041, resistant to azole antifungal agents) was “synergistic (A combination FIC index of 0.5 or less was evaluated as indicating synergistic action)” and the “Ratio indicating Additive effect” value (A. fumigatus; A. fumigatus (16 strains)) was 6%. For the same compound, the “Ratio indicating Antagonistic effect” value (A. fumigatus; A. fumigatus (16 strains)) was 0%, the “Ratio indicating Indifferent effect” value (A. fumigatus; A. fumigatus (16 strains)) was 94% and the “Ratio indicating Synergistic effect” value (A. fumigatus; A. fumigatus (16 strains)) was 0%. The “Ratio indicating Additive effect” value (A. flavus; Table 2) was 25%, the “Ratio indicating Antagonistic effect” value (A. flavus; Table 2) was 0% and the “Ratio indicating Indifferent effect” value (A. flavus; Table 2) was 75%. The “Ratio indicating Synergistic effect” value (A. flavus; Table 2) was 0%, the “Ratio indicating Additive effect” value (C. albicans; C. albicans (9 strains)) was 56% and the “Ratio indicating Antagonistic effect” value (C. albicans; C. albicans (9 strains)) was 0%. The “Ratio indicating Indifferent effect” value (C. albicans; C. albicans (9 strains)) was 0%, the “Ratio indicating Synergistic effect” value (C. albicans; C. albicans (9 strains)) was 44% and the “Effect of combination use with Test Compound 1 (FIC index evaluation)” value (C. albicans; Candida albicans IFM49738, resistant to azole antifungal agents) was “synergistic (A combination FIC index of 0.5 or less was evaluated as indicating synergistic action)”.
For `C[C@@H](c1ncncc1F)[C@](O)(Cn1cncn1)c1ccc(F)cc1F` [Voriconazole, voriconazole], the 14-day survival rate ([1]; VRCZ 1 mg/kg) was 0%, the 14-day survival rate ([1]; VRCZ 2 mg/kg) was 20% and the “Combination effects in mouse Aspergillus fumigatus infection model” value [1] was “synergistic combination effects”. The “Ratio indicating Additive effect” value (C. glabrata; C. glabrata (10 strains)) was 60%, the “Ratio indicating Antagonistic effect” value (C. glabrata; C. glabrata (10 strains)) was 0% and the “Ratio indicating Indifferent effect” value (C. glabrata; C. glabrata (10 strains)) was 10%. The “Ratio indicating Synergistic effect” value (C. glabrata; C. glabrata (10 strains)) was 30%, the “Ratio indicating Additive effect” value (C. tropicalis; C. tropicalis (10 strains)) was 0% and the “Ratio indicating Antagonistic effect” value (C. tropicalis; C. tropicalis (10 strains)) was 0%. For the same compound, the “Ratio indicating Indifferent effect” value (C. tropicalis; C. tropicalis (10 strains)) was 0%, the “Ratio indicating Synergistic effect” value (C. tropicalis; C. tropicalis (10 strains)) was 100% and the “Ratio indicating Additive effect” value (A. fumigatus; A. fumigatus (18 strains)) was 28%. For the same compound, the “Ratio indicating Antagonistic effect” value (A. fumigatus; A. fumigatus (18 strains)) was 0%, the “Ratio indicating Indifferent effect” value (A. fumigatus; A. fumigatus (18 strains)) was 67% and the “Ratio indicating Synergistic effect” value (A. fumigatus; A. fumigatus (18 strains)) was 6%. For the same compound, the “Ratio indicating Additive effect” value (A. flavus; Table 1) was 50%, the “Ratio indicating Antagonistic effect” value (A. flavus; Table 1) was 0% and the “Ratio indicating Indifferent effect” value (A. flavus; Table 1) was 50%. The “Ratio indicating Synergistic effect” value (A. flavus; Table 1) was 0%, the “Ratio indicating Additive effect” value (C. albicans; C. albicans (20 strains)) was 75% and the “Ratio indicating Antagonistic effect” value (C. albicans; C. albicans (20 strains)) was 0%. For the same compound, the “Ratio indicating Indifferent effect” value (C. albicans; C. albicans (20 strains)) was 10% and the “Ratio indicating Synergistic effect” value (C. albicans; C. albicans (20 strains)) was 15%.
